Data from patent US10258599B2, “Compounds for use in the prevention or treatment of cancer” (SEMMELWEIS UNIVERSITY, priority 2014, dated 2019).
“Also recorded” adds a separate entry of the source.

How the values were obtained:
[1] = test system: lung carcinoma; assay: Longevity study on FVB/N mice: spontaneous lung carcinoma at autopsy; assay type: in vivo, mouse; conditions: for Number of detected lung carcinoma: 18-month, 4 dissected mice
Procedure: Body weight is measured bimonthly.
For monitoring, we planned to sacrifice mice from each group at 6-month, 1-year, 1.5-year and 2-year time-points; the rest of the animals are kept until spontaneous death.
The results are shown in Table 4 and on FIGS. 19 and 20. Significance levels were calculated with two-sided Chi-square test.

[2] = test system: fibromyxosarcoma; assay: Longevity study: manifestation of subcutaneous fibromyxosarcoma (TMS effect); assay type: in vivo, rat; conditions: for tumor manifestation suppressing (TMS) effect versus saline: Kaplan-Meier, P<0.001
Procedure: The longevity study was performed on 200 male rats received from the breeding colony of the Semmelweis University. The rats were born at the end of February of 2010. After 2-month acclimation period the rats were divided randomly into 5 even groups. The longevity study started at the beginning of May 2010. Animals were observed until their natural deaths. The data in this study represent the changes observed until Oct. 31, 2012, since in the saline-treated group the last animal died on Oct. 31, 2012. As will be shown later a few rats in the enhancer-treated groups were still alive on Nov. 1, 2012.
During the longevity study 5 rats were housed together in polycarbonate cages (height: 18 cm; wide: 42 cm; length: 44 cm) with a stainless steel on the top. Cage bedding was renewed 3 times a week (Monday, Wednesday and Friday). Bodyweight was measured once every month. The treatment started at the end of the second month of their age.
We carefully observed the appearance of the subcutaneous tumor and followed the development of the tumor until death. Histological analysis was performed post mortem on several rats taken from each group as examples.
The subcutaneous tumors developed in the rats were measured by the two largest diameters. After sacrificing the animals, the tumors were removed, photographs were taken. Tissues were fixed immediately after removal in 10% neutral formalin (in PBS, pH7.0) for 24 hours at room temperature, dehydrated and embedded in paraffin. 3-4 micrometer thick sections were cut and stained by hematoxylin and eosin (HE) as a routine.
Significance in the performance between the groups in the shuttle box was evaluated by multi-factor analysis of variance (ANOVA). Significance regarding the span of time from tumor manifestation until death in rats and regarding aging related changes in bodyweight treated chronically with the enhancer substances was analyzed by One-way ANOVA. Statistical analysis of survival rate and tumor manifestation was performed by the Kaplan-Meier method.

[3] = test system: catecholaminergic neurons; assay: Comparison of CAE potency
Description: All these differences in the efficiency between BPAP and Deprenyl came together from measuring their enhancer effect on the following four enhancer-sensitive brain regulations: dopaminergic, noradrenergic, serotonergic and TMS. Using the enhancer substances as specific experimental tools, we quite unexpectedly discovered the operation of an enhancer-sensitive TMS regulation in the rat brain. As expected, the majority of the enhancer-sensitive regulations and the endogenous enhancer substances pertaining to these regulations are unknown. Enhancer-research is obviously in its pioneer stage.

[4] = test system: isolated locus coerulei of rats; conditions: Knoll et al., 1999, Miklya, Knoll B, 2002; cited from earlier work
[5] = test system: mouse lung adenocarcinoma tumors; assay: Mouse lung adenocarcinoma xenograft model in Balb/c nude mice; assay type: in vivo
Procedure: Mouse primary lung adenocarcinoma tumors maintained subcutaneously were utilized in the present study. Tumors with sizes of 3 mm in diameter were implanted subcutaneously in a total of 18 FVB/N female mice with a bodyweight of 25 g. From the day after tumor inoculation, 6-6 animals started receiving (−)-BPAP daily as a subcutaneous injection at a concentration of either 0.0001 mg/kg (low dose) or 0.05 mg/kg (high dose). Tumor sizes were measured twice a week using a digital caliper. Tumor volumes were calculated by the following formula: […]
Statistical analyses were made by Graphpad Prism 4.03 software. Significances of changes between control and (−)-BPAP-treated groups were assessed by using Mann-Whitney U-test. Significance was declared at the standard p<0.05 level.
Next, the same experiment was repeated using 18 Balb/c nude mice to explore whether the adaptive immune system plays a role in the tumor suppressor action of (−)-BPAP.

[6] = test system: Daoy HTB-186 cell line; assay: MTT proliferation assay, Daoy medulloblastoma cells; assay type: cell-based, human; conditions: for proliferation of cultured medulloblastoma cells: monotherapy, nine concentrations 10^-14 to 10^-6 M, 72 hours
Procedure: Human medulloblastoma cell line, Daoy was purchased from ATCCC, UW-228 was obtained from the courtesy of Professor Silber (Univerity of Washington, Seattle, Wash., USA).
Daoy and UW-228-2 cell lines were maintained in culture medium (each 500 ml Minimum Essential Medium Eagle, Alpha Modification (M8042, Sigma, St Louis, USA) with 50 ml FCS (Gibco), 40 mg Gentamicin (Sandoz), 5 ml sodium-pyruvate (S8636, Sigma, St Louis, USA), 5 ml non-essential-amino acid solution (M7145, Sigma, St Louis, USA), 10 ml L-glutamin (Sigma, St Louis, USA) at 37° C. in humified 5% CO2.
In each well 3×10^3 Daoy or UW-228-2 cells were seeded in 96-well plates (Sarstedt), solved in 100 μl of its own medium with 10% FCS. 24 hours after seeding, cells were treated for 72 hours by drugs solved in further 100 μl medium. First, both cell lines were treated by (−)-BPAP and (−)-deprenil in monotherapy to determine its dose-effect curves in concentration of 10^−6, 10^−7, 10^−8, 10^−9, […], 10^−11, 10^−12, 10^−13 and 10^−14 M. In combined treatment 10^−3, 3.3×10^−4, […] and 3.7×10^−5 M of temozolomide (Schering Plough, USA) or 0.04, 0.2, 1, 5 μM of Cisplatin (Ebewe Pharma, Austria) or 0.04, 0.2, 1, 5 μM of etoposide (Ebewe Pharma, Austria) or 10^−7, 10^−6, 10^−5 and 10^−4 μM (UW228-2) or 0.001, 0.005, 0.025 and 0.125 μM (Daoy) of Vincristin (Richter Gedeon, Hungary) were applied in monotherapy or combined with 10^−13 or 10^−8 M of (−)-BPAP or (−)-deprenil.
Cell proliferation was evaluated by MTT (3-(4,5-Dimethylthiazol-2-yl)-2,5-diphenyltetrazolium bromide) assay (M5655, Sigma) after 72-hour treatment by the method described in manufacturer's protocol.

CCCN[C@H](CCC)Cc1cc2ccccc2o1 [(−)-BPAP, (2R)-1-(1-benzofuran-2-yl)-N-propylpentane-2-amine]
Number of detected lung carcinoma ([1]; 0.0001 mg/kg daily): 0
Number of detected lung carcinoma ([1]; 0.05 mg/kg daily): 1
manifestation of lung carcinoma ([1]; extremely low dose (0.0001 mg/kg), 1.5-year (FIG. 20)): completely prevented the manifestation of lung carcinoma
tumor manifestation suppressing (TMS) effect versus saline ([2]; 0.0001 mg/kg): significantly decreased; also recorded: more potent in suppressing tumor manifestation than 0.1 mg/kg (−)-deprenyl
tumor manifestation suppressing (TMS) effect versus saline ([2]; 0.0001 mg/kg, listed as BPAP): highly efficient; also recorded: suppressed the manifestation of the fibromyxosarcoma significantly
month of age in which the first animal manifested the tumor ([2]; 0.0001 mg/kg, N=40): 20 month
rats in the group manifested the tumor to the end of the 32nd month ([2]; 0.0001 mg/kg, N=40): 8 rats
rats manifested the fibromyxosarcoma when the group completed the 30th month of life ([2]; 0.0001 mg/kg, N=40): 8 rats
month of age in which the first animal manifested the tumor ([2]; 0.0001 mg/kg, N=40, listed as BPAP): 25 month
tumor manifestation suppressing (TMS) effect versus saline ([2]; 0.05 mg/kg): significantly decreased
tumor manifestation suppressing (TMS) effect versus saline ([2]; 0.05 mg/kg, listed as BPAP): suppressed the manifestation of the fibromyxosarcoma significantly
month of age in which the first animal manifested the tumor ([2]; 0.05 mg/kg, N=40): 13 month
rats in the group manifested the tumor to the end of the 32nd month ([2]; 0.05 mg/kg, N=40): 7 rats
rats manifested the tumor when the group completed the 30th month of life ([2]; 0.05 mg/kg, N=40): 7 rats
span of time from tumor manifestation until death ([2]; chronic treatment, versus saline (FIG. 13), One-way ANOVA): no significant difference
potency as CAE substance relative to Deprenyl [3]: ~100 times
concentration range of the specific enhancer effect on noradrenergic neurons [4]: femto/picomolar
tumor size versus control ([5]; high dose 0.05 mg/kg s.c. daily): did not cause significant changes in tumor size
tumor growth (tumor volume) versus control ([5]; low dose 0.0001 mg/kg s.c. daily): significant inhibition of tumor growth
effectiveness of tumor-cell proliferation inhibiting agents in combination ([6]; 10^-13 or 10^-8 M combined with temozolomide, Cisplatin, etoposide or Vincristin): did not change the effectiveness
proliferation of cultured medulloblastoma cells [6]: did not inhibit the proliferation
proliferation of cultured medulloblastoma cells ([6]; listed as BPAP): none of the applied concentrations did Deprenyl or BPAP influence the proliferation
